Measured values reported in US11912682B2, “Isoindolinone compounds” (Monte Rosa Therapeutics, Inc., priority 2021, dated 2024).
Where two headings read alike, the source gives them in different places.

Assays:
GSPT1 [1] = molecular target: T1, GSPT1 (Homo sapiens (Human), UniProt P15170+Q96SW2); test: GSPT1 degradation in high N-Myc NSCLC cells (FIG. 2); type: cell-based; settings: for DC50: six hours of treatment
GSPT1 [2] = molecular target: T2, GSPT1 (Homo sapiens (Human), UniProt P15170); test: GSPT1 levels in NCI-H1155 tumors by western blotting; type: in vivo, female BALB/c nude mice; settings: 6 hours after the third dose, all three dose levels
Method: GSPT1 levels in tumors were determined by western blotting 6 hours after the third dose. Western blotting was performed as described previously using GAPDH as loading control.

GSPT1 [3] = molecular target: T1, GSPT1; test: selectivity by Western blot in MM1S cells, GSPT1; type: cell-based; settings: for GSPT1 degradation: MM1S cells, 6 hours, 0.3, 3 and 30 μM
Method: (§1) MM1S cells were purchased from ATCC (cat. Number CRL-2974), sub-cultured in 90% RPMI 1640 with 10% FBS, supplemented with 1× P/S and incubated at 37° C., 5% CO2. Compounds were stored as 10 mM DMSO stock. For the assay, MM1S cells (3 million cells/well) were plated in 6-well plates and incubated over night. Cells were treated with respective compounds using a serial dilution: 0.3 μM, 3 μM and 30 μM as well as a vehicle only (DMSO) control for 6 hours. Media with suspension cells was subsequently transferred to 15 mL conical tubes, wells rinsed twice with ice-cold PBS and merged with cell suspension in respective 15 mL conical tube. Cells were spinned down, supernatant aspirated, pellets resuspended in ice-cold PBS and transferred to microtubes. Cells were spinned down, supernatant aspirated and pellets resuspended in 120 μL RIPA lysis buffer supplemented with protease and phosphatase inhibitors. Cell lysates were incubated on ice for 20 minutes followed by centrifugation at >20,000 xg for 5 min. Supernatants were transferred to fresh microtubes and stored at −80° C. Total protein concentration was determined using a BCA assay with a BSA standard curve and concentration of all samples was adjusted to 1 mg/mL. 25 μL 4× LDS sample buffer supplemented with 100 mM DTT was added to 75 μL sample. Samples were centrifuged (8,000 xg, 1 min) and incubated at 95° C. for 5 min followed by another centrifugation step (8,000 xg, 1 min). 20 μL of each sample was loaded on a 4-12% gel alongside a protein molecular weight marker. Gels were run in the presence of MOPS buffer at 80 Volts for 30 min, followed by 120 Volts for 1.5 h and proteins subsequently transferred onto nitrocellulose membranes at 20 Volts for 7 min using an iBlot2 Gel Transfer Device. Membranes were then cut horizontally into two pieces, covering 80-50 kDa and 50-25 kDa. Blocking the membranes was performed by gently shaking in 5% (w/v) skim milk in TSB-T for 1 hr at room temperature. All primary antibodies were used at a 1/1000 in 5% (w/v) BSA dissolved in TBST and incubated with membranes over night at 4° C. Anti-IKZF1 (Ikaros; D6N9Y; 14859S), anti-IKZF3 (Aiolos; D1C1E; 15103S) antibodies were purchased from Cell Signalling Technology, anti-ZFP91 antibody from Bethyl laboratories, anti-GSPT1 from Sigma Aldrich (HPA052488) and anti CK1alpha from AbCam (ab206652). After three washes with 1× TBST for 5 min, HRP-coupled secondary antibodies diluted in 5% (w/v) BSA/TBST (Goat Anti-Rb IgG, dil. 1/10,000; Goat Anti-Mouse IgG, dil. 1/5000) were added for 1 hr at room temperature. After three washes with 1× TBST (5 minutes each), membranes were incubated with ECL reagent for 1 min at room temperature. Chemiluminescence signals were then detected using a LAS-4000 system with default settings and signals quantified using Image Studio Lite software (version 5.2). Membrane parts previously incubated with antibody against CK1alpha were stripped off antibodies by incubating with stripping buffer for 30 minutes followed by three washed with TBST (5 min each), blocking with 5% (w/v) skim milk for 1 hr, and incubation with primary antibody against GAPDH overnight at 4° C. Subsequent washes, incubation with secondary antibody and signal acquisition were performed as described above.

GSPT1 [4] = molecular target: T2, GSPT1; test: GSPT1 degradation in tumors of treated mice (FIG. 3B); type: in vivo, mouse; settings: all three dose levels (1, 3, 6 mg/kg), compared to vehicle control
human cell line NCI-H526 = test: N-Myc-driven mouse xenograft model, NCI-H526 (FIG. 3D); type: in vivo
CK1alpha = CK1alpha (Homo sapiens (Human), UniProt P48729); test: selectivity by Western blot in MM1S cells, CK1alpha; type: cell-based; design: key to CK1alpha degradation: A represents a no degradation observed at 30 μM; B represents trace degradation at 30 μM (below 20%); C represents weak degradation at 30 μM (below 50%); D represents degradation at 30 μM (>90%); E represents degradation at 3 μM (>90%); F represents degradation at 0.3 μM (>90%); settings: for CK1alpha degradation: MM1S cells, 6 hours, 0.3, 3 and 30 μM
Method: as §1

IKZF3 (Aiolos) = IKZF3 (Aiolos) (Homo sapiens (Human), UniProt Q9UKT9); test: selectivity by Western blot in MM1S cells, IKZF3; type: cell-based; design: key to IKZF3 degradation: A represents a no degradation observed at 30 μM; B represents trace degradation at 30 μM (below 20%); C represents weak degradation at 30 μM (below 50%); D represents degradation at 30 μM (>90%); E represents degradation at 3 μM (>90%); F represents degradation at 0.3 μM (>90%); settings: for IKZF3 degradation: MM1S cells, 6 hours, 0.3, 3 and 30 μM
Method: as §1

[5] = molecular target: Full length wild-type cereblon CRBN (Homo sapiens (Human), UniProt Q96SW2); test: fluorescence polarization (FP) assay, cereblon binding
Summary of the method: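 Full-length wild-type CRBN (80.0 nM as dispensed) preincubated 30 min at room temperature with compound in HEPES pH 8.0, NaCl, TCEP, 0.05% Tween 20.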

[6] = highest concentration tested of 30 μM

T1 sequence (P15170 whole entry, looked up): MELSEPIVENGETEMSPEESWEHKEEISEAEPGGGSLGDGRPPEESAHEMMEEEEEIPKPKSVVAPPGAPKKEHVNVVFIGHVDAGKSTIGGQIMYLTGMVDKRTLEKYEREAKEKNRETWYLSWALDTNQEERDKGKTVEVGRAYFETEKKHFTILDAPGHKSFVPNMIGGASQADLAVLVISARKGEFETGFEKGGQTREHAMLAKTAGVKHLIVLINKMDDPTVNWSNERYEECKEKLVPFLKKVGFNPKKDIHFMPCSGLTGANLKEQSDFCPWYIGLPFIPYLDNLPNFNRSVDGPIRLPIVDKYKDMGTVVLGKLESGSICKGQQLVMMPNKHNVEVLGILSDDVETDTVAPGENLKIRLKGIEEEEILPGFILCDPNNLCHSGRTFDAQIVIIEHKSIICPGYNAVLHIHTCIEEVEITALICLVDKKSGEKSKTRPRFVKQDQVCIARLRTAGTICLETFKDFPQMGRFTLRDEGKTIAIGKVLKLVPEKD
T1 sequence (Q96SW2 whole entry, looked up): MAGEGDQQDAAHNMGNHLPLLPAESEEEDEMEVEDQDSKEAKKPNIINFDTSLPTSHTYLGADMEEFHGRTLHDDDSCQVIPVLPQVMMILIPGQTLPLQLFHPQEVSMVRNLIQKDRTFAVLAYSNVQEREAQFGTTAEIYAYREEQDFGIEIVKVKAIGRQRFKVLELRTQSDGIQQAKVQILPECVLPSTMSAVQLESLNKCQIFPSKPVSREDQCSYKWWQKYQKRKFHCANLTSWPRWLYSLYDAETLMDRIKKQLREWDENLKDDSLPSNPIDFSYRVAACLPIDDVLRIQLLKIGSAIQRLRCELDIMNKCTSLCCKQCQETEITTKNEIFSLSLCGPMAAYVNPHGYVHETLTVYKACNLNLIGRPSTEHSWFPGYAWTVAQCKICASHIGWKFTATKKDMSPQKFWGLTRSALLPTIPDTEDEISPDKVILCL
T1 sequence (Q16531 whole entry partner, looked up): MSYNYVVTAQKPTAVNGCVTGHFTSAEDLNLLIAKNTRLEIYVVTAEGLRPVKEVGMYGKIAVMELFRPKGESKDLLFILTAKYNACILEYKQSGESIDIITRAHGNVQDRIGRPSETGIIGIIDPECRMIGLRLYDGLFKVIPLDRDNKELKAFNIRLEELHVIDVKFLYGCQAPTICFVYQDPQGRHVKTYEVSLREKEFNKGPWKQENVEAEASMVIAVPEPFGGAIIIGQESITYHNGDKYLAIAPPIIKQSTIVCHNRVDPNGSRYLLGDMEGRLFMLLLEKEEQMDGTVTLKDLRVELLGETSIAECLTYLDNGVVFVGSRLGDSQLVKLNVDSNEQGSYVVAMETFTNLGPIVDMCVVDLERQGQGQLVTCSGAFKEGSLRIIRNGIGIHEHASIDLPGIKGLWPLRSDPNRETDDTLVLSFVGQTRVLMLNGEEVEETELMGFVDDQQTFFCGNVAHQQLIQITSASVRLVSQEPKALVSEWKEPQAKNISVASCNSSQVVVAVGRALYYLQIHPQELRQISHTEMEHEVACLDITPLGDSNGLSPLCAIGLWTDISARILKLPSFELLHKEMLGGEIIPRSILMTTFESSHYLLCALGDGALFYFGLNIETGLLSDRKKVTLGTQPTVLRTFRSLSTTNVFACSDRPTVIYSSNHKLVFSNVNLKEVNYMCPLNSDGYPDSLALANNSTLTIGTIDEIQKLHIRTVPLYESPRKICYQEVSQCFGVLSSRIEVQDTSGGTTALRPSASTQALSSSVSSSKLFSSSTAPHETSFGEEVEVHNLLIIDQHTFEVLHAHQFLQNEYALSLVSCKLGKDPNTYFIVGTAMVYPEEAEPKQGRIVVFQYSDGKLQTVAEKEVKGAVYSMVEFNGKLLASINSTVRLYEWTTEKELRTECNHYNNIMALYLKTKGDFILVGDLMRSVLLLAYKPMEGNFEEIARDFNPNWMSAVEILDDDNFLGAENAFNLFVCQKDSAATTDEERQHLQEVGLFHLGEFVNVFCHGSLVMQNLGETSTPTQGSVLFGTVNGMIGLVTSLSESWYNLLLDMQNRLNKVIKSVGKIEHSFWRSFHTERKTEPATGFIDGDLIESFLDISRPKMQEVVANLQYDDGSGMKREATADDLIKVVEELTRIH
Full length wild-type cereblon CRBN, sequence (Q96SW2 whole entry): as the sequence (Q96SW2 whole entry, looked up) above
CK1alpha, sequence (P48729 whole entry, looked up): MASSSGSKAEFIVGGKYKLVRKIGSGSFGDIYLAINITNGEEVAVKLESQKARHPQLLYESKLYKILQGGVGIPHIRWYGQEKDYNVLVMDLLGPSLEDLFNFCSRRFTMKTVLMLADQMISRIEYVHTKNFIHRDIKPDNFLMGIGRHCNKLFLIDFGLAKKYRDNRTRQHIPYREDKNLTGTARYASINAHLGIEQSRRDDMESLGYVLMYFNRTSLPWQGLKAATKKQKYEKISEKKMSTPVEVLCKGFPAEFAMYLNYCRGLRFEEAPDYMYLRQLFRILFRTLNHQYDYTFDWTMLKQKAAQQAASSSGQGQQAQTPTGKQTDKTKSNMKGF
IKZF3 (Aiolos), sequence (Q9UKT9 whole entry, looked up): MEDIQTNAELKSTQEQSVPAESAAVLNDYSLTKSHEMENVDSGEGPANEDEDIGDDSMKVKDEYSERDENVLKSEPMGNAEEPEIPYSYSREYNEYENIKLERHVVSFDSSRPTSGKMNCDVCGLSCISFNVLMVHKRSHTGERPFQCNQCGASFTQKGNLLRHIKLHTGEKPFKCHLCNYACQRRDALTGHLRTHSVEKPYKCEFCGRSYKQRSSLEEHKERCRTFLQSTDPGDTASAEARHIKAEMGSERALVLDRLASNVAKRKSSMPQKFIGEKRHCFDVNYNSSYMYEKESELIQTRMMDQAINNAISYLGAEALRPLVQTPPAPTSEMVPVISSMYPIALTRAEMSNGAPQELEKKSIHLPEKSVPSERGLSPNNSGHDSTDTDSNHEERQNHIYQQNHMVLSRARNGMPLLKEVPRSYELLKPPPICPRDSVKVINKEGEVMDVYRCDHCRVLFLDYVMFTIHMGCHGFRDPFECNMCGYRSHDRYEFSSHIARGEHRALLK
T2 sequence (P15170 whole entry): as the sequence (P15170 whole entry, looked up) above
T2 sequence (Q96SW2 whole entry, further chain): as the sequence (Q96SW2 whole entry, looked up) above
T2 sequence (Q16531 2-1140 partner): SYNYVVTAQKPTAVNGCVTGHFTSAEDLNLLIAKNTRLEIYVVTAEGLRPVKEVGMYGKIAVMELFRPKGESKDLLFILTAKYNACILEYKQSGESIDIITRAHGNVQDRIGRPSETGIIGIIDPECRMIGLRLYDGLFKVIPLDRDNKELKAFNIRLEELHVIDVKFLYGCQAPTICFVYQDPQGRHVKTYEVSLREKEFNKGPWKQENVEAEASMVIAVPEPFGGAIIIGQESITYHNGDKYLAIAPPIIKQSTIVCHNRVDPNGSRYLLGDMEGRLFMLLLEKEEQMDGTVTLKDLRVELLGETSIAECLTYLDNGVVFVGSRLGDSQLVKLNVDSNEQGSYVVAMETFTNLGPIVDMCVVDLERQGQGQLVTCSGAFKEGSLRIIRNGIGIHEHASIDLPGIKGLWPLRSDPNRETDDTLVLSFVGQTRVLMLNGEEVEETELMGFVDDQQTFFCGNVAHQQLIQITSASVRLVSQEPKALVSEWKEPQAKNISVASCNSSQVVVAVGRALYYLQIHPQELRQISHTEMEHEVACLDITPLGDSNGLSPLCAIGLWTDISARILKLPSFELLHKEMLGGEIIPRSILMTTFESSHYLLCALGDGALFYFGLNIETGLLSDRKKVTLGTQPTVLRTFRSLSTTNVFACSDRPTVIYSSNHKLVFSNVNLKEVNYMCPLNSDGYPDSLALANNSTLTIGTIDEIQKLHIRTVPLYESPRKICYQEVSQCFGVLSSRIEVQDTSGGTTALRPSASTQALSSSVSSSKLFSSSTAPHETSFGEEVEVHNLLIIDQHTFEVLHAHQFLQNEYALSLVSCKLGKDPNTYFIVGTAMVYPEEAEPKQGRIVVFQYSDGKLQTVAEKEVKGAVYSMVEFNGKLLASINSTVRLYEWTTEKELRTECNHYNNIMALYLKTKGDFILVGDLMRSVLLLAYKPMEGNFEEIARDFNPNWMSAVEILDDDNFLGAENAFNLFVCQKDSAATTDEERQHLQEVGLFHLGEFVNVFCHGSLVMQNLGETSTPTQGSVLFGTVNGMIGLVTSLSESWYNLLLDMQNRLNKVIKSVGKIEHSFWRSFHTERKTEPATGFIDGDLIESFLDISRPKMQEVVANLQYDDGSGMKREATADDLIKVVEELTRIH

Q: `Cc1ccc(NC(=O)OCc2ccc3c(c2)C(=O)N(C2CCC(=O)NC2=O)C3)cc1Cl` (centres unmarked) [Compound 10] was tested. Which DC50 (GSPT1 [1]; ABC-1 cells) did it give?
A: Its DC50 is 22 nM.

Q: And the “relative levels of GSPT1 vs concentration” value (GSPT1 [1]; FIG. 2B)?
A: Its value is “concentration dependent manner”.

Q: And the DC50 (GSPT1 [1]; NCI-H1155 cells)?
A: The DC50 was 3 nM.

Q: What about the “extent of GSPT1 degradation” value (GSPT1 [1]; both cell lines, NCI-H1155 and ABC-1) of the same molecule?
A: The value was “complete degradation”.

Q: What about the “GSPT1 levels in tumors (FIG. 3B)” value (GSPT1 [2]) of the same molecule?
A: The value was “Complete degradation of GSPT1”.

Q: And the GSPT1 degradation (GSPT1 [3])?
A: The GSPT1 degradation was “D (D represents degradation at 30 μM (>90%))”.

Q: What about the “GSPT1 degradation (FIG. 1A)” value (GSPT1 [3]; cells treated at 0.3 μM) of the same molecule?
A: The value was “complete GSPT1 degradation”.

Q: What about the “degradation of GSPT1 in tumors” value (GSPT1 [4]) of the same molecule?
A: Its value is “complete degradation”.

Q: What about the “tumor size (tumor volume)” value (human cell line NCI-H526; 3 mg/kg PO once daily) of the same molecule?
A: Its value is “tumor size decreased and remained so until the end of the study”.

Q: What about the “tumor size (tumor volume)” value (human cell line NCI-H526; 6 mg/kg PO five days on and nine days off) of the same molecule?
A: The value was “tumor size decreased and remained so until the end of the study”.

Q: What about the body weight (human cell line NCI-H526; oral administration) of the same molecule?
A: Its body weight is “no body weight loss”.

Q: And the “effect on tumor growth (tumor volume)” value (human cell line NCI-H526; oral administration)?
A: The value was “tumor growth inhibition”.

Q: What about the CK1alpha degradation (CK1alpha) of the same molecule?
A: Its CK1alpha degradation is “B (B represents trace degradation at 30 μM (below 20%))”.

Q: What about the “CK1alpha degradation (FIG. 1A)” value (CK1alpha; [6]) of the same molecule?
A: The value was “none of the known the substrates IKZF1, IKZF3, SALL4, CK1alpha was degraded”.

Q: And the IKZF3 degradation (IKZF3 (Aiolos))?
A: The IKZF3 degradation was “B (B represents trace degradation at 30 μM (below 20%))”.

Q: What about the “IKZF3 degradation (FIG. 1A)” value (IKZF3 (Aiolos); [6]) of the same molecule?
A: Its value is “none of the known the substrates IKZF1, IKZF3, SALL4, CK1alpha was degraded”.

Q: `O=C1CCC(N2Cc3ccc(COC(=O)Nc4ccc(N5CCCCC5)nc4)cc3C2=O)C(=O)N1` (centres unmarked) [Compound 15] was tested. Which GSPT1 degradation (GSPT1 [3]) did it give?
A: The GSPT1 degradation was “F (F represents degradation at 0.3 μM (>90%))”.

Q: And the CK1alpha degradation (CK1alpha)?
A: Its CK1alpha degradation is “C (C represents weak degradation at 30 μM (below 50%))”.

Q: And the IC50 ([5]; read-out: IC50 value)?
A: The IC50 was < 1100 nM.

Q: And the IKZF3 degradation (IKZF3 (Aiolos))?
A: The IKZF3 degradation was “B (B represents trace degradation at 30 μM (below 20%))”.

Q: `CC(C)(C)c1ccc(NC(=O)OCc2ccc3c(c2)C(=O)N(C2CCC(=O)NC2=O)C3)cn1` (centres unmarked) [Compound 43] was tested. Which GSPT1 degradation (GSPT1 [3]) did it give?
A: Its GSPT1 degradation is “F (F represents degradation at 0.3 μM (>90%))”.

Q: And the CK1alpha degradation (CK1alpha)?
A: The CK1alpha degradation was “C (C represents weak degradation at 30 μM (below 50%))”.

Q: What about the IC50 ([5]; read-out: rFP IC50) of the same molecule?
A: Its IC50 is > 1700 nM.

Q: And the IKZF3 degradation (IKZF3 (Aiolos))?
A: Its IKZF3 degradation is “B (B represents trace degradation at 30 μM (below 20%))”.

Q: Which results are given for `O=C1CCC(N2Cc3ccc(COC(=O)Nc4ccc(-c5ccccc5)nc4)cc3C2=O)C(=O)N1` (centres unmarked) [Compound 42]?
A: GSPT1 degradation (GSPT1 [3]): F (F represents degradation at 0.3 μM (>90%)); CK1alpha degradation (CK1alpha): B (B represents trace degradation at 30 μM (below 20%)); IC50 ([5]; read-out: rFP IC50): > 1700 nM; IKZF3 degradation (IKZF3 (Aiolos)): A

Q: How did the GSPT1 degradation (GSPT1 [3]) turn out when `Cc1ncc(NC(=O)OCc2ccc3c(c2)C(=O)N(C2CCC(=O)NC2=O)C3)cc1Cl` (centres unmarked) [Compound 6] was run?
A: The GSPT1 degradation was “F (F represents degradation at 0.3 μM (>90%))”.

Q: What about the CK1alpha degradation (CK1alpha) of the same molecule?
A: Its CK1alpha degradation is “A”.

Q: What about the IC50 ([5]; read-out: IC50 value) of the same molecule?
A: Its IC50 is < 1100 nM.

Q: What about the IKZF3 degradation (IKZF3 (Aiolos)) of the same molecule?
A: The IKZF3 degradation was “B (B represents trace degradation at 30 μM (below 20%))”.
